{"source": "patent US20240398795A1", "about": "“COMBINATION THERAPIES USING PRMT5 INHIBITORS FOR THE TREATMENT OF CANCER” (MIRATI THERAPEUTICS, INC., priority 2021, published 2024)", "type_in_all_cases": "in vivo, mice", "key": {"HCC4006 xenograft tumors": {"system": "HCC4006 xenograft tumors", "test": "HCC4006 xenograft tumor volume study", "details": "n=5, MRTX1719 100 mg/kg PO QD, Docetaxel 10 mg/kg IP Q7D, combination 100 mg PO QD + 10 mg/kg IP Q7D", "protocol": "(§1) Immunodeficient female nu/nu or BALBC/Nude mice were subcutaneously implanted with 3×10^6 to 1×10^7 human derived cancer cells depending on the cell line xenograft model. Tumors were measured using calipers until they reached approximately 100-150 mm^3. […] Tumor volume was measured twice a week (n=5/treatment group). Average tumor volume and standard error of the mean was calculated and plotted at each study day in GraphPad.\n(§2) This example was carried out according to the study procedure described above. The PRMT5 inhibitor was MRTX1719 administered at 100 mg/kg once a day (QD). MRTX1719 is (2M)-2-(4-(4-(aminomethyl)-1-oxo-1,2-dihydrophthalazin-6-yl)-1-methyl-1H-pyrazol-5-yl)-4-chloro-6-cyclopropoxy-3-fluorobenzonitrile, disclosed as Example 16-8 at p. 307 of the International patent publication No. WO 2021/050915 A1, published 18 Mar. 2021, incorporated by reference in its entirety.\nSubstantially the same procedure as Example 1 was repeated except with mice bearing HCC4006 xenograft tumors."}, "SW1573 xenograft tumors": {"system": "SW1573 xenograft tumors", "test": "SW1573 xenograft tumor volume study", "details": "n=5, MRTX1719 50 mg/kg PO QD, Docetaxel 15 mg/kg IP Q7D, combination 50 mg PO QD + 15 mg/kg IP Q7D", "protocol": "as §1\n(§3) This example was carried out according to the study procedure described above. […] MRTX1719 is (2M)-2-(4-(4-(aminomethyl)-1-oxo-1,2-dihydrophthalazin-6-yl)-1-methyl-1H-pyrazol-5-yl)-4-chloro-6-cyclopropoxy-3-fluorobenzonitrile, disclosed as Example 16-8 at p. 307 of the International patent publication No. WO 2021/050915 A1, published 18 Mar. 2021, incorporated by reference in its entirety.\nSubstantially the same procedure as Example 1 was repeated except with mice bearing SW1573 xenograft tumors."}, "[1]": {"system": "MIAPaCa-2 xenograft tumors", "test": "MIAPaCa-2 xenograft tumor volume study", "details": "n=5, MRTX1719 100 mg/kg PO QD, Docetaxel 15 mg/kg IP Q7D, combination 100 mg PO QD + 15 mg/kg IP Q7D", "protocol": "as §1\nThis example was carried out according to the study procedure described above. The PRMT5 inhibitor was MRTX1719 administered at 100 mg/kg once a day (QD). […] 307 of the International patent publication No. WO 2021/050915 A1, published 18 Mar. 2021, incorporated by reference in its entirety.\nSubstantially the same procedure of Example 1 was repeated except with mice bearing MIAPaCa-2 xenograft tumors."}, "LU99 xenograft tumors": {"system": "LU99 xenograft tumors", "test": "LU99 xenograft tumor volume study", "details": "n=5, MRTX1719 50 mg/kg PO QD, Docetaxel 15 mg/kg IP Q7D, combination 50 mg PO QD + 15 mg/kg IP Q7D", "protocol": "as §1, §3\nSubstantially the same procedure of Example 1 was repeated except with mice bearing LU99 xenograft tumors."}, "[2]": {"system": "NCI-H2228 xenograft tumors", "test": "NCI-H2228 xenograft tumor volume study", "details": "n=5, MRTX1719 100 mg/kg PO QD, Docetaxel 10 mg/kg IP Q7D, combination 100 mg PO QD + 10 mg/kg IP Q7D", "protocol": "as §1, §2\nSubstantially the same procedure as Example 1 was repeated except with mice bearing NCI-H2228 xenograft tumors."}, "H1650 xenograft tumors": {"system": "H1650 xenograft tumors", "test": "NCI-H1650 xenograft tumor volume study", "details": "n=5, MRTX1719 100 mg/kg PO QD, Docetaxel 10 mg/kg IP Q7D, combination 100 mg/kg PO QD + 10 mg/kg IP Q7D", "protocol": "as §1, §2"}, "KP4 xenograft tumors": {"system": "KP4 xenograft tumors", "test": "KP4 xenograft tumor volume study", "details": "n=5, Docetaxel 15 mg/kg IP Q7D, combination 100 mg PO QD + 15 mg/kg IP Q7D", "protocol": "as §1, §2\nSubstantially the same procedure of Example 1 was repeated except with mice bearing KP4 xenograft tumors."}, "A549 xenograft tumors": {"system": "A549 xenograft tumors", "test": "A549 xenograft tumor volume study", "details": "n=5, MRTX1719 100 mg/kg PO QD, Docetaxel 15 mg/kg IP Q7D, combination 100 mg PO QD + 15 mg/kg IP Q7D", "protocol": "as §1, §2\nSubstantially the same procedure as Example 1 was repeated except with mice bearing A549 xenograft tumors."}}, "data": [{"smiles": "CC(=O)O[C@@]12CO[C@@H]1C[C@H](O)[C@@]1(C)C(=O)[C@H](O)C3=C(C)[C@@H](OC(=O)[C@H](O)[C@@H](NC(=O)OC(C)(C)C)c4ccccc4)C[C@@](O)([C@@H](OC(=O)c4ccccc4)[C@H]21)C3(C)C", "note": "[Docetaxel, docetaxel]", "values": [{"measurement": "Tumor Volume, Mean", "setting": "HCC4006 xenograft tumors; Day 0", "value": 126, "unit": "mm^3"}, {"measurement": "Tumor Volume, Mean", "setting": "HCC4006 xenograft tumors; Day 2", "value": 151, "unit": "mm^3"}, {"measurement": "Tumor Volume, Mean", "setting": "HCC4006 xenograft tumors; Day 5", "value": 139, "unit": "mm^3"}, {"measurement": "Tumor Volume, Mean", "setting": "HCC4006 xenograft tumors; Day 9", "value": 140, "unit": "mm^3"}, {"measurement": "Tumor Volume, Mean", "setting": "HCC4006 xenograft tumors; Day 12", "value": 150, "unit": "mm^3"}, {"measurement": "Tumor Volume, Mean", "setting": "HCC4006 xenograft tumors; Day 16", "value": 143, "unit": "mm^3"}, {"measurement": "Tumor Volume, Mean", "setting": "HCC4006 xenograft tumors; Day 20", "value": 137, "unit": "mm^3"}, {"measurement": "Tumor Volume, Mean", "setting": "SW1573 xenograft tumors; Day 0", "value": 141, "unit": "mm^3"}, {"measurement": "Tumor Volume, Mean", "setting": "SW1573 xenograft tumors; Day 3", "value": 148, "unit": "mm^3"}, {"measurement": "Tumor Volume, Mean", "setting": "SW1573 xenograft tumors; Day 8", "value": 191, "unit": "mm^3"}, {"measurement": "Tumor Volume, Mean", "setting": "SW1573 xenograft tumors; Day 10", "value": 231, "unit": "mm^3"}, {"measurement": "Tumor Volume, Mean", "setting": "SW1573 xenograft tumors; Day 14", "value": 281, "unit": "mm^3"}, {"measurement": "Tumor Volume, Mean", "setting": "SW1573 xenograft tumors; Day 17", "value": 302, "unit": "mm^3"}, {"measurement": "Tumor Volume, Mean", "setting": "SW1573 xenograft tumors; Day 21", "value": 352, "unit": "mm^3"}, {"measurement": "Tumor Volume, Mean", "setting": "[1]; Day 1", "value": 133, "unit": "mm^3"}, {"measurement": "Tumor Volume, Mean", "setting": "[1]; Day 5", "value": 187, "unit": "mm^3"}, {"measurement": "Tumor Volume, Mean", "setting": "[1]; Day 13", "value": 268, "unit": "mm^3"}, {"measurement": "Tumor Volume, Mean", "setting": "[1]; Day 16", "value": 315, "unit": "mm^3"}, {"measurement": "Tumor Volume, Mean", "setting": "[1]; Day 19", "value": 375, "unit": "mm^3"}, {"measurement": "Tumor Volume, Mean", "setting": "[1]; Day 22", "value": 415, "unit": "mm^3"}, {"measurement": "Tumor Volume, Mean", "setting": "LU99 xenograft tumors; Day 0", "value": 153, "unit": "mm^3"}, {"measurement": "Tumor Volume, Mean", "setting": "LU99 xenograft tumors; Day 5", "value": 184, "unit": "mm^3"}, {"measurement": "Tumor Volume, Mean", "setting": "LU99 xenograft tumors; Day 8", "value": 299, "unit": "mm^3"}, {"measurement": "Tumor Volume, Mean", "setting": "LU99 xenograft tumors; Day 12", "value": 459, "unit": "mm^3"}, {"measurement": "Tumor Volume, Mean", "setting": "LU99 xenograft tumors; Day 15", "value": 757, "unit": "mm^3"}, {"measurement": "Tumor Volume, Mean", "setting": "LU99 xenograft tumors; Day 20", "value": 1057, "unit": "mm^3"}, {"measurement": "Tumor Volume, Mean", "setting": "LU99 xenograft tumors; Day 22", "value": 1255, "unit": "mm^3"}, {"measurement": "Tumor Volume, Mean", "setting": "LU99 xenograft tumors; Day 26", "value": 1722, "unit": "mm^3"}, {"measurement": "Tumor Volume, Mean", "setting": "[2]; Day 0", "value": 121, "unit": "mm^3"}, {"measurement": "Tumor Volume, Mean", "setting": "[2]; Day 3", "value": 100, "unit": "mm^3"}, {"measurement": "Tumor Volume, Mean", "setting": "[2]; Day 6", "value": 73, "unit": "mm^3"}, {"measurement": "Tumor Volume, Mean", "setting": "[2]; Day 9", "value": 76, "unit": "mm^3"}, {"measurement": "Tumor Volume, Mean", "setting": "[2]; Day 13", "value": 68, "unit": "mm^3"}, {"measurement": "Tumor Volume, Mean", "setting": "[2]; Day 16", "value": 42, "unit": "mm^3"}, {"measurement": "Tumor Volume, Mean", "setting": "[2]; Day 20", "value": 15, "unit": "mm^3"}, {"measurement": "Tumor Volume, Mean", "setting": "[2]; Day 23", "value": 10, "unit": "mm^3"}, {"measurement": "Tumor Volume, Mean", "setting": "[2]; Day 27", "value": 12, "unit": "mm^3"}, {"measurement": "Tumor Volume, Mean", "setting": "H1650 xenograft tumors; Day 0", "value": 147, "unit": "mm^3"}, {"measurement": "Tumor Volume, Mean", "setting": "H1650 xenograft tumors; Day 3", "value": 291, "unit": "mm^3"}, {"measurement": "Tumor Volume, Mean", "setting": "H1650 xenograft tumors; Day 7", "value": 425, "unit": "mm^3"}, {"measurement": "Tumor Volume, Mean", "setting": "H1650 xenograft tumors; Day 10", "value": 660, "unit": "mm^3"}, {"measurement": "Tumor Volume, Mean", "setting": "H1650 xenograft tumors; Day 14", "value": 710, "unit": "mm^3"}, {"measurement": "Tumor Volume, Mean", "setting": "H1650 xenograft tumors; Day 17", "value": 770, "unit": "mm^3"}, {"measurement": "Tumor Volume, Mean", "setting": "H1650 xenograft tumors; Day 20", "value": 826, "unit": "mm^3"}, {"measurement": "Tumor Volume, Mean", "setting": "KP4 xenograft tumors; Day 0, MRTX1719 100 mg/kg PO QD", "value": 144, "unit": "mm^3"}, {"measurement": "Tumor Volume, Mean", "setting": "KP4 xenograft tumors; Day 5, MRTX1719 100 mg/kg PO QD", "value": 121, "unit": "mm^3"}, {"measurement": "Tumor Volume, Mean", "setting": "KP4 xenograft tumors; Day 7, MRTX1719 100 mg/kg PO QD", "value": 105, "unit": "mm^3"}, {"measurement": "Tumor Volume, Mean", "setting": "KP4 xenograft tumors; Day 11, MRTX1719 100 mg/kg PO QD", "value": 90, "unit": "mm^3"}, {"measurement": "Tumor Volume, Mean", "setting": "KP4 xenograft tumors; Day 14, MRTX1719 100 mg/kg PO QD", "value": 82, "unit": "mm^3"}, {"measurement": "Tumor Volume, Mean", "setting": "KP4 xenograft tumors; Day 19, MRTX1719 100 mg/kg PO QD", "value": 126, "unit": "mm^3"}, {"measurement": "Tumor Volume, Mean", "setting": "KP4 xenograft tumors; Day 21, MRTX1719 100 mg/kg PO QD", "value": 272, "unit": "mm^3"}, {"measurement": "Tumor Volume, Mean", "setting": "KP4 xenograft tumors; Day 25", "value": 482, "unit": "mm^3"}, {"measurement": "Tumor Volume, Mean", "setting": "KP4 xenograft tumors; Day 28", "value": 592, "unit": "mm^3"}, {"measurement": "Tumor Volume, Mean", "setting": "KP4 xenograft tumors; Day 32", "value": 785, "unit": "mm^3"}, {"measurement": "Tumor Volume, Mean", "setting": "KP4 xenograft tumors; Day 35", "value": 895, "unit": "mm^3"}, {"measurement": "Tumor Volume, Mean", "setting": "A549 xenograft tumors; Day 1", "value": 118, "unit": "mm^3"}, {"measurement": "Tumor Volume, Mean", "setting": "A549 xenograft tumors; Day 5", "value": 128, "unit": "mm^3"}, {"measurement": "Tumor Volume, Mean", "setting": "A549 xenograft tumors; Day 8", "value": 156, "unit": "mm^3"}, {"measurement": "Tumor Volume, Mean", "setting": "A549 xenograft tumors; Day 12", "value": 160, "unit": "mm^3"}, {"measurement": "Tumor Volume, Mean", "setting": "A549 xenograft tumors; Day 15", "value": 169, "unit": "mm^3"}, {"measurement": "Tumor Volume, Mean", "setting": "A549 xenograft tumors; Day 19", "value": 167, "unit": "mm^3"}, {"measurement": "Tumor Volume, Mean", "setting": "A549 xenograft tumors; Day 22", "value": 163, "unit": "mm^3"}, {"measurement": "Tumor Volume, Mean", "setting": "A549 xenograft tumors; Day 26", "value": 162, "unit": "mm^3"}, {"measurement": "Tumor Volume, Mean", "setting": "A549 xenograft tumors; Day 29", "value": 189, "unit": "mm^3"}, {"measurement": "Tumor Volume, Mean", "setting": "A549 xenograft tumors; Day 34", "value": 239, "unit": "mm^3"}]}]}
